From PubChem BioAssay AID2060905 (Molecular Pharmacology Branch, DTP, NCI, 2025)

System: 282377-053-R-J1-PDC complex spheroid viability
Experiment: Anticancer human tumor 282377-053-R-J1-PDC patient-derived colon adenocarcinoma cell line growth inhibition [RAS]
Conditions: for viability, T/C: stronger effect = lower value
Method in brief: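 Tumour cells grown as complex spheroids with HUVEC endothelial cells and mesenchymal stem cells, treated with RAS pathway inhibitor combinations. Each agent spans half-log steps from near clinical Cmax, or 10 microM where Cmax is unknown.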
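Note: spheroids exposed to agents for seven days before readout.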
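Throughout, for viability, T/C: luminescence viability as percent of DMSO vehicle control wells.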

## CCN1CCN(Cc2ccc(Nc3ncc(F)c(-c4cc(F)c5nc(C)n(C(C)C)c5c4)n3)nc2)CC1 + CCn1c(-c2cccnc2C(C)OC)c2c3cc(ccc31)N1CCOC(CC(NC(=O)C(C(C)C)N(C)C(=O)C3(F)CCN(C(=O)C#CC(C)(C)N(C)C)CC3)C(=O)N3CCCC(N3)C(=O)OCC(C)(C)C2)C1
Curve of first compound, second compound 0.000949 µM
  IC50: > 1000 nM
Curve of first compound, second compound 0.003 µM
  IC50: > 1000 nM
Curve of first compound, second compound 0.00949 µM
  IC50: > 1000 nM
Curve of first compound, second compound 0.03 µM
  IC50: > 1000 nM
Curve of first compound, second compound 0.0949 µM
  IC50: > 1000 nM
Curve of first compound, second compound 0.3 µM
  IC50: > 1000 nM
Second compound 0.000949 µM, first compound 0.00316 µM
  viability, T/C: 117%
Second compound 0.000949 µM, first compound 0.01 µM
  viability, T/C: 100%
Second compound 0.000949 µM, first compound 0.0316 µM
  viability, T/C: 104%
Second compound 0.000949 µM, first compound 0.1 µM
  viability, T/C: 97.3%
Second compound 0.000949 µM, first compound 0.316 µM
  viability, T/C: 137%
Second compound 0.000949 µM, first compound 1 µM
  viability, T/C: 229%
Second compound 0.003 µM, first compound 0.00316 µM
  viability, T/C: 137%
Second compound 0.003 µM, first compound 0.01 µM
  viability, T/C: 113%
Second compound 0.003 µM, first compound 0.0316 µM
  viability, T/C: 94.6%
Second compound 0.003 µM, first compound 0.1 µM
  viability, T/C: 99%
Second compound 0.003 µM, first compound 0.316 µM
  viability, T/C: 144%
Second compound 0.003 µM, first compound 1 µM
  viability, T/C: 204%
Second compound 0.00949 µM, first compound 0.00316 µM
  viability, T/C: 111%
Second compound 0.00949 µM, first compound 0.01 µM
  viability, T/C: 106%
Second compound 0.00949 µM, first compound 0.0316 µM
  viability, T/C: 122%
Second compound 0.00949 µM, first compound 0.1 µM
  viability, T/C: 90.4%
Second compound 0.00949 µM, first compound 0.316 µM
  viability, T/C: 156%
Second compound 0.00949 µM, first compound 1 µM
  viability, T/C: 208%
Second compound 0.03 µM, first compound 0.00316 µM
  viability, T/C: 104%
Second compound 0.03 µM, first compound 0.01 µM
  viability, T/C: 99.5%
Second compound 0.03 µM, first compound 0.0316 µM
  viability, T/C: 113%
Second compound 0.03 µM, first compound 0.1 µM
  viability, T/C: 110%
Second compound 0.03 µM, first compound 0.316 µM
  viability, T/C: 134%
Second compound 0.03 µM, first compound 1 µM
  viability, T/C: 238%
Second compound 0.0949 µM, first compound 0.00316 µM
  viability, T/C: 102%
Second compound 0.0949 µM, first compound 0.01 µM
  viability, T/C: 109%
Second compound 0.0949 µM, first compound 0.0316 µM
  viability, T/C: 120%
Second compound 0.0949 µM, first compound 0.1 µM
  viability, T/C: 116%
Second compound 0.0949 µM, first compound 0.316 µM
  viability, T/C: 125%
Second compound 0.0949 µM, first compound 1 µM
  viability, T/C: 250%
Second compound 0.3 µM, first compound 0.00316 µM
  viability, T/C: 93%
Second compound 0.3 µM, first compound 0.01 µM
  viability, T/C: 106%
Second compound 0.3 µM, first compound 0.0316 µM
  viability, T/C: 87.2%
Second compound 0.3 µM, first compound 0.1 µM
  viability, T/C: 124%
Second compound 0.3 µM, first compound 0.316 µM
  viability, T/C: 160%
Second compound 0.3 µM, first compound 1 µM
  viability, T/C: 221%

## CC1(C)CCC(Nc2ncc(C(F)(F)F)c(-c3c[nH]c4c(P(C)(C)=O)c(C#N)ccc34)n2)CN1 (stereo not drawn) + C#Cc1c(F)ccc2cc(O)cc(-c3ncc4c(N5CC6CCC(C5)N6)nc(OCC56CCCN5CC(F)C6)nc4c3F)c12
Curve of first compound, second compound 0.0316 µM
  IC50: > 300 nM
Curve of first compound, second compound 0.1 µM
  IC50: > 300 nM
Curve of first compound, second compound 0.316 µM
  IC50: > 300 nM
Curve of first compound, second compound 1 µM
  IC50: > 300 nM
Curve of first compound, second compound 3.16 µM
  IC50: > 300 nM
Curve of first compound, second compound 10 µM
  IC50: > 300 nM
Second compound 0.0316 µM, first compound 0.000949 µM
  viability, T/C: 142%
Second compound 0.0316 µM, first compound 0.003 µM
  viability, T/C: 109%
Second compound 0.0316 µM, first compound 0.00949 µM
  viability, T/C: 91.4%
Second compound 0.0316 µM, first compound 0.03 µM
  viability, T/C: 69%
Second compound 0.0316 µM, first compound 0.0949 µM
  viability, T/C: 71.2%
Second compound 0.0316 µM, first compound 0.3 µM
  viability, T/C: 66.8%
Second compound 0.1 µM, first compound 0.000949 µM
  viability, T/C: 103%
Second compound 0.1 µM, first compound 0.003 µM
  viability, T/C: 132%
Second compound 0.1 µM, first compound 0.00949 µM
  viability, T/C: 87.1%
Second compound 0.1 µM, first compound 0.03 µM
  viability, T/C: 72.6%
Second compound 0.1 µM, first compound 0.0949 µM
  viability, T/C: 71.9%
Second compound 0.1 µM, first compound 0.3 µM
  viability, T/C: 72.5%
Second compound 0.316 µM, first compound 0.000949 µM
  viability, T/C: 118%
Second compound 0.316 µM, first compound 0.003 µM
  viability, T/C: 92.6%
Second compound 0.316 µM, first compound 0.00949 µM
  viability, T/C: 92.3%
Second compound 0.316 µM, first compound 0.03 µM
  viability, T/C: 67.1%
Second compound 0.316 µM, first compound 0.0949 µM
  viability, T/C: 71.9%
Second compound 0.316 µM, first compound 0.3 µM
  viability, T/C: 57.8%
Second compound 1 µM, first compound 0.000949 µM
  viability, T/C: 112%
Second compound 1 µM, first compound 0.003 µM
  viability, T/C: 110%
Second compound 1 µM, first compound 0.00949 µM
  viability, T/C: 96.9%
Second compound 1 µM, first compound 0.03 µM
  viability, T/C: 80.4%
Second compound 1 µM, first compound 0.0949 µM
  viability, T/C: 74.9%
Second compound 1 µM, first compound 0.3 µM
  viability, T/C: 67.7%
Second compound 3.16 µM, first compound 0.000949 µM
  viability, T/C: 93%
Second compound 3.16 µM, first compound 0.003 µM
  viability, T/C: 103%
Second compound 3.16 µM, first compound 0.00949 µM
  viability, T/C: 98.8%
Second compound 3.16 µM, first compound 0.03 µM
  viability, T/C: 75.4%
Second compound 3.16 µM, first compound 0.0949 µM
  viability, T/C: 83.6%
Second compound 3.16 µM, first compound 0.3 µM
  viability, T/C: 72.9%
Second compound 10 µM, first compound 0.000949 µM
  viability, T/C: 113%
Second compound 10 µM, first compound 0.003 µM
  viability, T/C: 87.3%
Second compound 10 µM, first compound 0.00949 µM
  viability, T/C: 98%
Second compound 10 µM, first compound 0.03 µM
  viability, T/C: 88.4%
Second compound 10 µM, first compound 0.0949 µM
  viability, T/C: 98.6%
Second compound 10 µM, first compound 0.3 µM
  viability, T/C: 76.7%

## C=CC(=O)Nc1cc(Nc2nccc(-c3cn(C)c4ccccc34)n2)c(OC)cc1N(C)CCN(C)C
Compound 0.01 µM
  viability, T/C: 98.4% [middle of 4 runs]
Compound 0.0316 µM
  viability, T/C: 91.6% [middle of 4 runs]
Compound 1 µM
  viability, T/C: 99.8% [middle of 4 runs]
Curve of compound
  IC50: > 1000 nM
